These results are taken from patent US20140194517A1, “Treatment of Graft-Versus-Host Disease Disorders using RAR Antagonists” (Io Therapeutics, Inc., priority 2013, published 2014).

The assay deals with B10.BR recipients (acute GVHD). Description: Acute GVHD after allogeneic BMT: lethally irradiated B10.BR recipients given B6 BM and splenocytes. To be noted: 15×10^6 splenocytes, ATRA 200 μg/mouse IP daily day 0 to 28. The assay is classed as in vivo, mice. How it is done:
FIG. 3. Heightened RA levels and RAR-α signaling exacerbates GVHD. Survival and weight curves of lethally irradiated B10.BR recipients (n=8/group) injected with 10^7 BM and 15×10^6 splenocytes from B6 mice. Subgroups were treated with vehicle (filled circles) or all trans retinoic acid (ATRA) (open circles) p=0.013.
FIG. 4. Heightened RA levels and RAR-α signaling exacerbates GVHD. Survival and weight curves of lethally irradiated B10.BR recipients (n=8/group) injected with 10^7 BM and 5×10^6 splenocytes from B6 mice. Subgroups were treated with vehicle (filled circles) or ATRA (open circles) p=0.037.
To determine whether heightened vitamin A signaling would augment acute GVHD, B10.BR recipients given BM with or without 15×10^6 splenocytes from B6 mice were given ATRA (200 μg/mouse IP) daily from day 0 to 28. […] These findings indicate heightened vitamin A levels and RAR signaling can enhance GVHD lethality.

Structures are written as SMILES.

For `CC1=C(/C=C/C(C)=C/C=C/C(C)=C/C(=O)O)C(C)(C)CCC1` [ATRA, all trans retinoic acid], the GVHD lethality result (p=0.013 vs vehicle) was “significant increase”. The “median survival time (MST)” value (vehicle 21.5 days) is 9 days. The weight loss entry (vs vehicle) is “accelerated weight loss”.
